GI50 data for 16 compounds are collected here from patent US20240398805A1, “QUINAZOLINE DERIVED COMPOUNDS AS EGFR INHIBITORS AND THEIR USES THEREOF” (ACCUTAR BIOTECHNOLOGY INC., priority 2021, published 2024).

What all share (assay type): cell-based
In one assay the test system is A431 cells. Kind of assay: Cell growth inhibition (CellTiter-Glo, 3 days) in A431. The settings on record: Homo sapiens, A-431, 72 h, 3 days after administration. The procedure, abridged:
(§1)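 HCC827 cells in RPMI/10% FBS and A431 cells in DMEM/10% FBS were seeded at 5000 cells/well and left overnight. Compound was then added over a concentration range for 3 days of incubation, and viability was read by CellTiter-Glo luminescence.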

The test system of the next assay is HCC827 cells. In words: Cell growth inhibition (CellTiter-Glo, 3 days) in HCC827. The settings on record: Homo sapiens, 72 h, 3 days after administration. The procedure, abridged:
as §1
On the technique in general: ATP-based viability assays read luminescence as a measure of living cells.

The test system of assay [1] is HCC827-ASV cells (human EGFR exon 20 insertion mutant A769_D770insASV). Kind of assay: Cell growth inhibition (CellTiter-Glo, 3 days) in HCC827-ASV. The settings on record: 72 h, 3 days after administration. The procedure, abridged: (§2)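 HCC827 cells lentivirally transduced with codon-optimized ASV or YVMA insertion mutants were seeded at 5000 cells/well in RPMI with 10% FBS and incubated overnight. Compound was added at various concentrations from a 10× stock in medium, with 3 days' incubation. Viability read by CellTiter-Glo luminescence.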

Assay [2] concerns HCC827-SVD cells (human EGFR exon 20 insertion mutant D770_N771 insSVD). In words: Cell growth inhibition (CellTiter-Glo, 3 days) in HCC827-SVD. As to conditions: 72 h, 3 days after administration. The method in brief: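 HCC827 cells carrying lentiviral codon-optimized EGFR D770_N771 insSVD, with endogenous EGFR knocked out by CRISPR (single clone), seeded at 5000 cells/well in RPMI with 10% FBS. Viability read by CellTiter-Glo luminescence.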

The test system of assay [3] is HCC827-YVMA cells (human ERBB2 exon20 insertion mutant A775_G776ins YVMA). Kind of assay: Cell growth inhibition (CellTiter-Glo, 3 days) in HCC827-YVMA. The settings on record: 72 h, 3 days after administration. The method in brief: as §2

Bounds are passed on as bounds.

What is called GI50 is the concentration at which growth is held to half of that of the control. Read a low GI50 as greater sensitivity of the cells.

As to `C=CC(=O)N1CCC(Nc2cc3c(Nc4ccc(Oc5ccnc(N6CC[C@@H](O)C6)c5)cc4F)ncnc3cc2OC)CC1` [Example 173, (R)-1-(4-((4-((2-fluoro-4-((2-(3-hydroxypyrrolidin-1-yl)pyridin-4-yl)oxy)phenyl)amino)-7-methoxyquinazolin-6-yl)amino)piperidin-1-yl)prop-2-en-1-one], the GI50 in the assay on A431 cells is at least 1000 nM; in the assay on HCC827 cells, 300 to 600 nM; in assay [1], 60 to 100 nM; in assay [2] it was 100 to 300 nM; in assay [3], 100 to 300 nM.

Consider `C=CC(=O)N1CCC(Nc2cc3c(Nc4ccc(Oc5ccnc(N6CC[C@H](O)C6)c5)cc4F)ncnc3cc2OC)CC1` [Example 174, (S)-1-(4-((4-((2-fluoro-4-((2-(3-hydroxypyrrolidin-1-yl)pyridin-4-yl)oxy)phenyl)amino)-7-methoxyquinazolin-6-yl)amino)piperidin-1-yl)prop-2-en-1-one], for which the concentration for 50% growth inhibition (GI50) was at least 1000 nM in the assay with A431 cells; 600 to 1000 nM in the assay with HCC827 cells; 100 to 300 nM in assay [1]; 100 to 300 nM in assay [2]; 100 to 300 nM in assay [3].

As to `C=CC(=O)N1CCC(Nc2cc3c(Nc4ccc(Oc5ccnc(N6CC7(CC(O)C7)C6)c5)cc4F)ncnc3cc2OC)CC1` [Example 175, 1-(4-((4-((2-fluoro-4-((2-(6-hydroxy-2-azaspiro[3.3]heptan-2-yl)pyridin-4-yl)oxy)phenyl)amino)-7-methoxyquinazolin-6-yl)amino)piperidin-1-yl)prop-2-en-1-one], the GI50 in the assay on A431 cells is at least 1000 nM; in the assay on HCC827 cells it was 600 to 1000 nM; in assay [1] it was 30 to 60 nM; in assay [2] it was 30 to 60 nM; in assay [3], 30 to 60 nM.

As to `C=CC(=O)N1CCC(Nc2cc3c(Nc4ccc(Oc5ccnc(-c6nc(C)c(C)s6)c5)cc4F)ncnc3cc2OC)CC1` [Example 176, 1-(4-((4-((4-((2-(4,5-dimethylthiazol-2-yl)pyridin-4-yl)oxy)-2-fluorophenyl)amino)-7-methoxyquinazolin-6-yl)amino)piperidin-1-yl)prop-2-en-1-one], the 50% growth inhibitory concentration (GI50) is 600 to 1000 nM in the assay with A431 cells; 100 to 300 nM in the assay with HCC827 cells; under 30 nM in assay [1]; 30 to 60 nM in assay [2]; under 30 nM in assay [3].

Regarding `C=CC(=O)N1CCC(Nc2cc3c(Nc4ccc(Oc5ccnc(-c6nc(C)sc6C)c5)cc4F)ncnc3cc2OC)CC1` [Example 177, 1-(4-((4-((4-((2-(2,5-dimethylthiazol-4-yl)pyridin-4-yl)oxy)-2-fluorophenyl)amino)-7-methoxyquinazolin-6-yl)amino)piperidin-1-yl)prop-2-en-1-one], the GI50 in the assay with A431 cells was 300 to 600 nM; in the assay on HCC827 cells, 100 to 300 nM; in assay [1] it was under 30 nM; in assay [2], under 30 nM; in assay [3], under 30 nM.

For `C=CC(=O)N1CCC(Nc2cc3c(Nc4ccc(Oc5ccnc(N6CCC(N)CC6)c5)cc4F)ncnc3cc2OC)CC1` [Example 178, 1-(4-((4-((4-((2-(4-aminopiperidin-1-yl)pyridin-4-yl)oxy)-2-fluorophenyl)amino)-7-methoxyquinazolin-6-yl)amino)piperidin-1-yl)prop-2-en-1-one], the GI50 in the assay on A431 cells is at least 1000 nM; with HCC827 cells it was at least 1000 nM; in assay [1], 300 to 600 nM; in assay [2] it was 300 to 600 nM; in assay [3], 300 to 600 nM.

Turning to `C=CC(=O)N1CCC(Nc2cc3c(Nc4ccc(Oc5ccnc(N6CCN(C)[C@@H](C)C6)c5)cc4F)ncnc3cc2OC)CC1` [Example 179, (S)-1-(4-((4-((4-((2-(3,4-dimethylpiperazin-1-yl)pyridin-4-yl)oxy)-2-fluorophenyl)amino)-7-methoxyquinazolin-6-yl)amino)piperidin-1-yl)prop-2-en-1-one], the GI50 with A431 cells was at least 1000 nM; in the assay with HCC827 cells it was at least 1000 nM; in assay [1] it was under 30 nM; in assay [2], 60 to 100 nM; in assay [3], 30 to 60 nM.

With `C=CC(=O)N1CCC(Nc2cc3c(Nc4ccc(Oc5ccnc(N6CCN(C)[C@H](C)C6)c5)cc4F)ncnc3cc2OC)CC1` [Example 180, (R)-1-(4-((4-((4-((2-(3,4-dimethylpiperazin-1-yl)pyridin-4-yl)oxy)-2-fluorophenyl)amino)-7-methoxyquinazolin-6-yl)amino)piperidin-1-yl)prop-2-en-1-one], the GI50 with A431 cells is at least 1000 nM; with HCC827 cells it was at least 1000 nM; in assay [1] it was 30 to 60 nM; in assay [2] it was 30 to 60 nM; in assay [3], 30 to 60 nM.

As for `C=CC(=O)N1CCC(Nc2cc3c(Nc4ccc(Oc5ccnc(C(=O)N(C)C)c5)cc4F)ncnc3cc2OC)CC1` [Example 182, 4-(4-((6-((1-acryloylpiperidin-4-yl)amino)-7-methoxyquinazolin-4-yl)amino)-3-fluorophenoxy)-N,N-dimethylpicolinamide], the 50% growth inhibitory concentration (GI50) was at least 1000 nM with A431 cells; 600 to 1000 nM in the assay with HCC827 cells; 600 to 1000 nM in assay [1]; 600 to 1000 nM in assay [2]; 300 to 600 nM in assay [3].

Consider `C=CC(=O)N1CCC(Nc2cc3c(Nc4ccc(Oc5ccnc(NC6COC6)c5)cc4F)ncnc3cc2OC)CC1` [Example 183, 1-(4-((4-((2-fluoro-4-((2-(oxetan-3-ylamino)pyridin-4-yl)oxy)phenyl)amino)-7-methoxyquinazolin-6-yl)amino)piperidin-1-yl)prop-2-en-1-one], for which the concentration for 50% growth inhibition (GI50) (in the assay on A431 cells; with HCC827 cells; in assay [1]; in assay [2]; in assay [3]) was at least 1000 nM in each case.

Take `C=CC(=O)N1CCC(Nc2cc3c(Nc4ccc(Oc5ccnc(NC6CCN(C)CC6)c5)cc4F)ncnc3cc2OC)CC1` [Example 184, 1-(4-((4-((2-fluoro-4-((2-((1-methylpiperidin-4-yl)amino)pyridin-4-yl)oxy)phenyl)amino)-7-methoxyquinazolin-6-yl)amino)piperidin-1-yl)prop-2-en-1-one]: the concentration for 50% growth inhibition (GI50) (with A431 cells; in the assay on HCC827 cells; in assay [1]; in assay [2]; in assay [3]) was at least 1000 nM throughout.

As for `C=CC(=O)N1CCC(Nc2cc3c(Nc4ccc(Oc5ccnc(C6CCN(C)CC6)c5)cc4F)ncnc3cc2OC)CC1` [Example 186, 1-(4-((4-((2-fluoro-4-((2-(1-methylpiperidin-4-yl)pyridin-4-yl)oxy)phenyl)amino)-7-methoxyquinazolin-6-yl)amino)piperidin-1-yl)prop-2-en-1-one], the GI50 with A431 cells was at least 1000 nM; with HCC827 cells, 600 to 1000 nM; in assay [1] it was at least 1000 nM; in assay [2] it was at least 1000 nM; in assay [3] it was at least 1000 nM.

On to `C=CC(=O)N1CCC(Nc2cc3c(Nc4ccc(Oc5ccnc(N6CCN(C(C)C)CC6)c5)cc4F)ncnc3cc2OC)CC1` [Example 187, 1-(4-((4-((2-fluoro-4-((2-(4-isopropylpiperazin-1-yl)pyridin-4-yl)oxy)phenyl)amino)-7-methoxyquinazolin-6-yl)amino)piperidin-1-yl)prop-2-en-1-one], for which the concentration for 50% growth inhibition (GI50) in the assay with A431 cells is at least 1000 nM; with HCC827 cells it was at least 1000 nM; in assay [1], 100 to 300 nM; in assay [2], 100 to 300 nM; in assay [3], 300 to 600 nM.

Take `C=CC(=O)N1CCC(Oc2cc3c(Nc4ccc(Oc5ccnc(N6CC7C(C6)C7(F)F)c5)cc4F)ncnc3cc2OC)CC1` (centres unmarked) [Example 188, 1-(4-((4-((4-((2-(6,6-difluoro-3-azabicyclo[3.1.0]hexan-3-yl)pyridin-4-yl)oxy)-2-fluorophenyl)amino)-7-methoxyquinazolin-6-yl)oxy)piperidin-1-yl)prop-2-en-1-one]: the concentration for 50% growth inhibition (GI50) in the assay with A431 cells was 100 to 300 nM; with HCC827 cells it was 60 to 100 nM; in assay [1], under 30 nM; in assay [2], under 30 nM; in assay [3], 30 to 60 nM.

Consider `C=CC(=O)N1CCC(Nc2cc3c(Nc4ccc(Oc5ccnc(N6C[C@H](OC)[C@H](OC)C6)c5)cc4F)ncnc3cc2OC)CC1` [Example 189, 1-(4-((4-((4-((2-((3R,4S)-3,4-dimethoxypyrrolidin-1-yl)pyridin-4-yl)oxy)-2-fluorophenyl)amino)-7-methoxyquinazolin-6-yl)amino)piperidin-1-yl)prop-2-en-1-one], for which the 50% growth inhibitory concentration (GI50) with A431 cells was at least 1000 nM; with HCC827 cells it was 300 to 600 nM; in assay [1] it was under 30 nM; in assay [2] it was under 30 nM; in assay [3], under 30 nM.

On to `C=CC(=O)N1CCC(Nc2cc3c(Nc4ccc(Oc5ccnc(N6C[C@H]7COC[C@H]7C6)c5)cc4F)ncnc3cc2OC)CC1` [Example 190, 1-(4-((4-((2-fluoro-4-((2-((3aR,6aS)-tetrahydro-1H-furo[3,4-c]pyrrol-5(3H)-yl)pyridin-4-yl)oxy)phenyl)amino)-7-methoxyquinazolin-6-yl)amino)piperidin-1-yl)prop-2-en-1-one], for which the GI50 in the assay on A431 cells was 300 to 600 nM; with HCC827 cells it was 30 to 60 nM; in assay [1], under 30 nM; in assay [2], under 30 nM; in assay [3], under 30 nM.
